Reference: patent US6479435B1, “Diaryl ethers and processes for their preparation and herbicidal and desiccant compositions containing them” (ISK Americas Incorporated, priority 1997, dated 2002)

Tests used:
Assay type in all cases: in vivo
[1] = test system: redroot pigweed (Amaranthus retroflexus, AMARE); assay: Post-emerge greenhouse herbicide test, phytotoxicity rating; settings: 14 days after application, scale 0-100
How it was run: (§1)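 Plants at the 2-3 leaf stage, sown 8-21 days earlier, were track-sprayed post-emergence with compound in acetone plus 0.25% v/v non-ionic surfactant at 63-1000 g ai/ha (187 l/ha). Damage was rated at 14 days on a 0-100 scale (0 none, 100 all plants dead), for both crop injury and weed control.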

[2] = test system: green foxtail (Setaria viridis, SETVI); assay: as above; settings: 14 days after application, scale 0-100
How it was run: as §1

[3] = test system: lambsquarters (Chenopodium album, CHEAL); assay: as above; settings: 14 days after application, scale 0-100
How it was run: as §1

[4] = test system: Johnsongrass (Sorghum halepense, SORHA); assay: as above; settings: 14 days after application, scale 0-100
How it was run: as §1

[5] = test system: large crabgrass (Digitaria sanguinalis, DIGSA); assay: as above; settings: 14 days after application, scale 0-100
How it was run: as §1

[6] = test system: velvetleaf (Abutilon theophrasti, ABUTH); assay: as above; settings: 14 days after application, scale 0-100
How it was run: as §1

[7] = test system: barnyardgrass (Echinochloa crusgalli, ECHCG); assay: as above; settings: 14 days after application, scale 0-100
How it was run: as §1

[8] = test system: ivyleaf morningglory (Ipomoea hederacea, IPOHE); assay: as above; settings: 14 days after application, scale 0-100
How it was run: as §1

[9] = test system: soybean (Glycine max L., var. Pella 86, SOY); assay: Post-emerge greenhouse test, crop damage rating; design: key to crop damage rating SOY: 0-100 scale: 0 = no damage, 100 = complete death of all plants; settings: 14 days after application, scale 0-100
How it was run: as §1

[10] = test system: soybean (Glycine max L., var. Pella 86, SOY); assay: Pre-emerge greenhouse test, crop damage rating; design: key to SOY crop damage rating: 0 = no damage, 100 = complete death of all plants; settings: 14 days after application, rating scale 0-100
How it was run: (§2)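 Seeds sown in sandy loam one day before track-sprayer application of acetone solutions at 125–1000 g ai/ha (187 l/ha), then surface-watered to incorporate and bottom-watered. Injury scored visually at 14 days on a 0–100 scale (0 no damage, 100 complete death).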

[11] = test system: upland rice (Oryza sp., var.Tebonnet, RICE); assay: Pre-emerge greenhouse test, crop damage rating; settings: 14 days after application, rating scale 0-100
How it was run: as §2

[12] = test system: field corn (Zea mays L., var. Dekalb 535, CORN); assay: Pre-emerge greenhouse test, crop damage rating; settings: 14 days after application, rating scale 0-100
How it was run: as §2

[13] = test system: common ragweed (Ambrosia artemisiifolia L., AMBEL); assay: Post-emerge greenhouse herbicide test, phytotoxicity rating; settings: 14 days after application, scale 0-100
How it was run: as §1

[14] = test system: redroot pigweed (Amaranthus retroflexus, AMARE); assay: Pre-emerge greenhouse herbicide test, phytotoxicity rating; settings: 14 days after application, rating scale 0-100
How it was run: as §2

[15] = test system: common ragweed (Ambrosia artemisiifolia L., AMBEL); assay: as above; settings: 14 days after application, rating scale 0-100
How it was run: as §2

[16] = test system: sicklepod (Cassia obtusifolia, CASOB); assay: as above; settings: 14 days after application, rating scale 0-100
How it was run: as §2

[17] = test system: green foxtail (Setaria viridis, SETVI); assay: as above; settings: 14 days after application, rating scale 0-100
How it was run: as §2

[18] = test system: lambsquarters (Chenopodium album, CHEAL); assay: as above; settings: 14 days after application, rating scale 0-100
How it was run: as §2

[19] = test system: Johnsongrass (Sorghum halepense, SORHA); assay: as above; settings: 14 days after application, rating scale 0-100
How it was run: as §2

[20] = test system: large crabgrass (Digitaria sanguinalis, DIGSA); assay: as above; settings: 14 days after application, rating scale 0-100
How it was run: as §2

[21] = test system: velvetleaf (Abutilon theophrasti, ABUTH); assay: as above; settings: 14 days after application, rating scale 0-100
How it was run: as §2

[22] = test system: barnyardgrass (Echinochloa crusgalli, ECHCG); assay: as above; settings: 14 days after application, rating scale 0-100
How it was run: as §2

[23] = test system: ivyleaf morningglory (Ipomoea hederacea, IPOHE); assay: as above; settings: 14 days after application, rating scale 0-100
How it was run: as §2

[24] = test system: upland rice (Oryza sp., var.Tebonnet, RICE); assay: Post-emerge greenhouse test, crop damage rating; settings: 14 days after application, scale 0-100
How it was run: as §1

[25] = test system: field corn (Zea mays L., var. Dekalb 535, CORN); assay: Post-emerge greenhouse test, crop damage rating; settings: 14 days after application, scale 0-100
How it was run: as §1

CS(=O)(=O)c1cccnc1Oc1cc(-n2c(=O)n3n(c2=S)CCCC3)c(F)cc1Cl [Compound 8-21]
phytotoxicity rating AMARE ([1]; rate 63 g ai/ha): 100 | phytotoxicity rating AMARE ([1]; rate 500 g ai/ha): 100 | phytotoxicity rating SETVI ([2]; rate 63 g ai/ha): 0 | phytotoxicity rating SETVI ([2]; rate 500 g ai/ha): 40 | phytotoxicity rating CHEAL ([3]; rate 63 g ai/ha): 99 | phytotoxicity rating CHEAL ([3]; rate 500 g ai/ha): 100 | phytotoxicity rating SORHA ([4]; rate 63 g ai/ha): 10 | phytotoxicity rating SORHA ([4]; rate 500 g ai/ha): 70 | phytotoxicity rating DIGSA ([5]; rate 63 g ai/ha): 0 | phytotoxicity rating DIGSA ([5]; rate 500 g ai/ha): 60 | phytotoxicity rating ABUTH ([6]; rate 63 g ai/ha): 100 | phytotoxicity rating ABUTH ([6]; rate 500 g ai/ha): 100 | phytotoxicity rating ECHCG ([7]; rate 63 g ai/ha): 0 | phytotoxicity rating ECHCG ([7]; rate 500 g ai/ha): 70 | phytotoxicity rating IPOHE ([8]; rate 63 g ai/ha): 90 | phytotoxicity rating IPOHE ([8]; rate 500 g ai/ha): 100 | crop damage rating SOY ([9]; rate 63 g ai/ha): 90 | crop damage rating SOY ([9]; rate 500 g ai/ha): 100 | SOY crop damage rating ([10]; Rate 125 g al/ha): 0 | SOY crop damage rating ([10]; Rate 500 g al/ha): 80 | RICE crop damage rating ([11]; Rate 125 g al/ha): 40 | RICE crop damage rating ([11]; Rate 500 g al/ha): 95 | CORN crop damage rating ([12]; Rate 125 g al/ha): 0 | CORN crop damage rating ([12]; Rate 500 g al/ha): 10 | phytotoxicity rating AMBEL ([13]; rate 63 g ai/ha): 60 | phytotoxicity rating AMBEL ([13]; rate 500 g ai/ha): 90 | AMARE phytotoxicity rating ([14]; Rate 125 g al/ha): 100 | AMARE phytotoxicity rating ([14]; Rate 500 g al/ha): 100 | AMBEL phytotoxicity rating ([15]; Rate 125 g al/ha): 70 | AMBEL phytotoxicity rating ([15]; Rate 500 g al/ha): 90 | CASOB phytotoxicity rating ([16]; Rate 125 g al/ha): 70 | CASOB phytotoxicity rating ([16]; Rate 500 g al/ha): 100 | SETVI phytotoxicity rating ([17]; Rate 125 g al/ha): 99 | SETVI phytotoxicity rating ([17]; Rate 500 g al/ha): 100 | CHEAL phytotoxicity rating ([18]; Rate 125 g al/ha): 100 | CHEAL phytotoxicity rating ([18]; Rate 500 g al/ha): 100 | SORHA phytotoxicity rating ([19]; Rate 125 g al/ha): 50 | SORHA phytotoxicity rating ([19]; Rate 500 g al/ha): 100 | DIGSA phytotoxicity rating ([20]; Rate 125 g al/ha): 70 | DIGSA phytotoxicity rating ([20]; Rate 500 g al/ha): 100 | ABUTH phytotoxicity rating ([21]; Rate 125 g al/ha): 100 | ABUTH phytotoxicity rating ([21]; Rate 500 g al/ha): 100 | ECHCG phytotoxicity rating ([22]; Rate 125 g al/ha): 40 | ECHCG phytotoxicity rating ([22]; Rate 500 g al/ha): 90 | IPOHE phytotoxicity rating ([23]; Rate 125 g al/ha): 90 | IPOHE phytotoxicity rating ([23]; Rate 500 g al/ha): 100 | crop damage rating RICE ([24]; rate 63 g ai/ha): 50 | crop damage rating RICE ([24]; rate 500 g ai/ha): 60 | crop damage rating CORN ([25]; rate 63 g ai/ha): 10 | crop damage rating CORN ([25]; rate 500 g ai/ha): 0
